# Measured values published in patent US20060228776A1, “PINK-1 promoter” (NEUROLOGIX, INC., priority 2004, published 2006).
# What was measured:
# PTEN = assay: Western blot of p-PTEN/total PTEN ratio in toxin-treated SH-SY5Y cells; assay type: cell-based, human
# Experimental: (§1) SH-SY5Y cells were maintained in Dulbecco's modified medium (DMEM) supplemented with 10% FBS, 100 IU/mL penicillin and […] streptomycin at 37 °C under 5% CO2. Toxins (Sigma) were freshly prepared and added to the cultures and incubated for various lengths of time.
# (§2) Blots were incubated with antibodies against PTEN, Phospho-PTEN, and Caspase-3 (Cell Signaling) followed by secondary antibodies and enhanced chemiluminescent detection (Amersham Biosciences).
# PTEN and phosphorylated PTEN (p-PTEN) were determined by using western blot analysis. FIG. 6C show PTEN activity was determined by comparing the ratio of p-PTEN/total PTEN. A decrease in p-PTEN/total PTEN is correlated with higher PTEN activity. Results were analyzed by Image J software and p-PTEN/total PTEN results were shown graphically. […] Substantia nigra pars compacta were dissected and harvested for western blot analysis as previously described.
# [1] = system: human neuroblastoma SH-SY5Y; assay: Cell viability, CellTiter 96 Aqueous One Solution Cell Proliferation Assay; assay type: cell-based
# Experimental: as §1
# To measure cell viability and apoptosis CellTiter 96 Aqueous One Solution Cell Proliferation Assay (Promega) and propidium iodide (Sigma) were used, respectively.
# Caspase-3 = assay: Western blot of Caspase-3 active metabolite in SH-SY5Y cells; assay type: cell-based, human; conditions: high (mM) doses of MPP+, 24 hrs
# Experimental: as §1, §2
# PINK1 promoter = PINK1 promoter analysis, Dual Glo Luciferase Assay in transfected HEK293 cells; assay type: cell-based, human; conditions: promoter alone vs no promoter (pGL2-basic) or SV40 promoter (pGL2-control); HEK293, 48 hrs; p<0.05
# Experimental: HEK293 cells were transfected with PINK1pr2220 and various controls for 48 hrs. Promoter activity was determined using Dual Glo Luciferase Assay system (Promega) and normalized against renilla luciferase.
# In FIG. 3(A) the results are represented as the level of firefly luciferase activity driven by the PINK1 promoter normalized against renilla luciferase activity from a second plasmid used to control for transfection variability. Each experiment was replicated in triplicate, and the entire study was replicated on at least two separate occasions. […] Co-transfection with PTEN induced PINK1 promoter activity from 65% to 5 fold in various replicate experiments compared with PINK1 alone (**p<0.05; two-tailed t-test), while a PTEN point-mutant which lacks lipid phosphatase activity (1 mPTEN) had no effect.
# Data is the result of triplicate experiments analyzed relative to promoter activity of PINK1pr2220 alone (*p<0.05; two-tailed t-test).
# All plasmids were kept at constant amounts and ratios, with empty plasmid replacing constructs not used for individual studies. Data is the result of triplicate experiments analyzed relative to promoter activity of PINK1pr2220 alone (*p<0.05; two-tailed t-test).
compound,measurement,setting,value
"NCCc1cc(O)c(O)cc1O [6-OHDA, 6-hydroxydopamine]",p-PTEN/total PTEN ratio,PTEN; n=4,lower p-PTEN/total PTEN ratio
same,cell viability,[1]; 6-OHDA,reduced cell viability
C[n+]1ccc(-c2ccccc2)cc1 [MPP+],cleavage of Caspase-3 active metabolites,Caspase-3,not cleaved
same,p-PTEN/total PTEN ratio,"PTEN; 24 hrs, escalating high doses of MPP+ (mM)",No change
same,p-PTEN/total PTEN ratio,"PTEN; low dose MPP+ (100 μM), various time points",reduction
same,cell viability,[1]; MPP+ 24 hr treatment,reduced cell viability
"PINK1 promoter: 2220bp human DNA sequence upstream of the PINK1 transcriptional start site, driving firefly luciferase",PINK1 promoter activity (firefly luciferase normalized against renilla luciferase),PINK1 promoter,significant promoter activity
